In patent US8507488B2, “Fused nitrogen containing heterocycles and compositions thereof as kinase inhibitors” (IRM LLC, priority 2008, dated 2013):
pIC50: −log10 of the molar value.

Assays:
[1] = target: T1, Tel-TrkA (Homo sapiens, UniProt P04629); test: Inhibition of proliferation of Ba/F3 cells expressing Tel-TrkA (BaF3/Tel-TrkA, luciferase/Bright Glo readout); assay type: cell-based; conditions: read-out: Ba/F3 Tel-TrkA IC 50
T1 construct: dimerization domain of Tel (ETV6) transcription factor (fusion partner, human ETV6 P41212); expressed in transfected cells; host or cells: luciferase expressing Ba/F3 murine hematopoietic progenitor cells; the other entry of the earlier key: ETV6 (P41212, Transcription factor ETV6)
Protocol: (§1) Test compounds were dissolved in DMSO (10 mM) and transferred into 1.4 mL flat bottom or V-shaped Matrix tubes carrying a unique 2D matrix chip by individual compound hubs. The numbers of these chips were distinctively linked to the individual compound identification numbers. The stock solutions were stored at −20° C. if not used immediately. For the test procedure the vials were defrosted and identified by a scanner whereby a working sheet is generated that guides the subsequent working steps.
(§2) Compound dilutions were made in 384 well plates. This format enabled the assay of maximally 28 individual test compounds at 12 concentrations (single points) including 2 reference compounds. The dilution protocol included the production of pre-dilution plates, master plates and assay plates: • Compound plates: 30 μL of individual compound (10 mM) DMSO solution including standard compound were transferred into columns 1 and 13 of a 384 well plate. 20 μL of DMSO were added to the rest of the wells and the compounds were serially diluted (1:3) by transferring 10 μL from a well in column 1 or 13 to the next well in column 2 or 14 respectively and successively with the help of a Minitrack robot. • Assay plates: Identical assay plates were then prepared by adding […] each of compound dilutions of the compound plates into 384-well “assay plates”. In the following the compounds were mixed with 50 μL of assays components (cells or enzyme) and tested for their inhibitory activity.
(§3) Compounds of Formula (I) were tested for their antiproliferative effect on Ba/F3 cells expressing either Tel-TrkA, Tel-TrkB or Tel-TrkC and an additional panel of 34 selected diverse kinases activated by fusion to the dimerizing partners Bcr or Tel (Abl, A1K, BMX, EphA3, EphB2, FGFR2, FGFR3, FGFR4, FGR, FLT1, FLT3, FLT4, FMS, IGF1R, InsR, JAK1, JAK2, JAK3, KDR, Kit, Lck, Lyn, MER, MET, PDGFRb, RET, RON, Ros-1, Src, Aurora, TIE2, TYK2, Tie1, ZAP70). The antiproliferative effect of these compounds on the different cell lines and on the non transformed cells were tested at 12 different concentrations of 3-fold serially diluted compounds in 384 well plates as described above (in media lacking IL3). The IC50 values of the compounds the different cell lines were determined from dose response curves.
(§4) The cell line used is the luciferase expressing Ba/F3 murine hematopoietic progenitor cell line transformed with human Tel-TrkA, Tel-TrkB or Tel-TrkC cDNAs (Ba/F3 EN A/B/C). These cells maintained in RPMI/10% fetal bovine serum (RPMI/FCS) supplemented with penicillin 50 mg/mL, streptomycin 50 mg/mL and L-glutamine […]. Untransformed Ba/F3 cells were similarly maintained with the addition 5 ng/ml of murine recombinant IL3. 50 μl of a Ba/F3 or Ba/F3 EN A/B/C cell suspension were plated in Greiner 384 well microplates (white)) at a density of 2000 cells per well. […] The cells were incubated for 48 hours at 37° C., 5% CO2. 25 μl of Bright Glo® (Promega) luciferase substrate is added to each well. The emited luminiscence is quantified using the ACQUEST™ luminescence system (Molecular Devices). IC50 values were calculated by linear regression analysis of the percentage inhibition of each compound at 12 concentrations.

[2] = target: T2, Tel-TrkB (Homo sapiens, UniProt Q16620); test: Inhibition of proliferation of Ba/F3 cells expressing Tel-TrkB (BaF3/Tel-TrkB); assay type: cell-based; conditions: Ba/F3 Tel-TrkB cells; read-out: Ba/F3 Tel-TrkB IC 50
T2 construct: dimerization domain of Tel (ETV6) transcription factor (fusion partner, human ETV6 P41212); expressed in transfected cells; host or cells: luciferase expressing Ba/F3 murine hematopoietic progenitor cells; the other entry of the earlier key: ETV6 (P41212, Transcription factor ETV6)
Protocol: as §1, §2, §3, §4

[3] = target: T3, full length rTrkA and mNGF (Rattus norvegicus, UniProt P35739); test: Inhibition of proliferation of Ba/F3 cells co-expressing full length rTrkA and mNGF (BaF3/TrkA-NFG); assay type: cell-based; conditions: BaF3 TRKA-NGF cells, CTG readout
T3 construct: co-expressing full length rTrkA and mNGF; expressed in transfected cells; host or cells: Ba/F3 cells

[4] = system: parental BaF3 cells; test: Proliferation of parental (untransformed) Ba/F3 cells maintained with IL3; assay type: cell-based, murine; conditions: Mus musculus, BaF3, parental Ba/F3 cells; read-out: Ba/F3 IC 50
Protocol: as §1, §2
The cell line used is the luciferase expressing Ba/F3 murine hematopoietic progenitor cell line transformed with human Tel-TrkA, Tel-TrkB or Tel-TrkC cDNAs (Ba/F3 EN A/B/C). These cells maintained in RPMI/10% fetal bovine serum (RPMI/FCS) supplemented with penicillin 50 mg/mL, streptomycin 50 mg/mL and L-glutamine […]. Untransformed Ba/F3 cells were similarly maintained with the addition 5 ng/ml of murine recombinant IL3. 50 μl of a Ba/F3 or Ba/F3 EN A/B/C cell suspension were plated in Greiner 384 well microplates (white)) at a density of 2000 cells per well. 50 nl of serially diluted test compound (10-0.0001 mM in DMSO solution) is added to each well. The cells were incubated for 48 hours at 37° C., 5% CO2. 25 μl of Bright Glo® (Promega) luciferase substrate is added to each well. The emited luminiscence is quantified using the ACQUEST™ luminescence system (Molecular Devices). IC50 values were calculated by linear regression analysis of the percentage inhibition of each compound at 12 concentrations.

T3 sequence (P35739 33-799): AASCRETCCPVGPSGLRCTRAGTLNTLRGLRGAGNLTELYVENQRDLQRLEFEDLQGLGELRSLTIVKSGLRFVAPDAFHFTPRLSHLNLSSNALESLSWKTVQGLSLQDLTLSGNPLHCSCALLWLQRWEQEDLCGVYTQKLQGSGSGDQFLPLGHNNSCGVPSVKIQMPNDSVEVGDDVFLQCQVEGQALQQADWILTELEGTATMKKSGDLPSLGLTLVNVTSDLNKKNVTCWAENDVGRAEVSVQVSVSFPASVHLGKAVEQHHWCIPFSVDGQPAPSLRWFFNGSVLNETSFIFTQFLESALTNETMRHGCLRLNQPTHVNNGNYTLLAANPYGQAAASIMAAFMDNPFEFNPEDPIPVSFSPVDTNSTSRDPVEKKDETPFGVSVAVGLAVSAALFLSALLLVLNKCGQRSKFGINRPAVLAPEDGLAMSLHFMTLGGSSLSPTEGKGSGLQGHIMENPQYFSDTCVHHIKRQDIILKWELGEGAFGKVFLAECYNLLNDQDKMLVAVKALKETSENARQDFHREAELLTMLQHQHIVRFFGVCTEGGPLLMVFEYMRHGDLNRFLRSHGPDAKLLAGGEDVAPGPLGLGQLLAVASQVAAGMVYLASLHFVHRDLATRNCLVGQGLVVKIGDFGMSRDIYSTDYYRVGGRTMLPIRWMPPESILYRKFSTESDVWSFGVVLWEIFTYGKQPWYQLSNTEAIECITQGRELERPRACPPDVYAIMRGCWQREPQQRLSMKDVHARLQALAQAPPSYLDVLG
T3 sequence (P01139 122-241 partner): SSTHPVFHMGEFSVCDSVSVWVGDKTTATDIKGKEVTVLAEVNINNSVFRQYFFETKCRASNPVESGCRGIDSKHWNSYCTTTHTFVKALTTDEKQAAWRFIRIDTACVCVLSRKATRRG
T2 sequence (Q16620 538-822 limits assumed): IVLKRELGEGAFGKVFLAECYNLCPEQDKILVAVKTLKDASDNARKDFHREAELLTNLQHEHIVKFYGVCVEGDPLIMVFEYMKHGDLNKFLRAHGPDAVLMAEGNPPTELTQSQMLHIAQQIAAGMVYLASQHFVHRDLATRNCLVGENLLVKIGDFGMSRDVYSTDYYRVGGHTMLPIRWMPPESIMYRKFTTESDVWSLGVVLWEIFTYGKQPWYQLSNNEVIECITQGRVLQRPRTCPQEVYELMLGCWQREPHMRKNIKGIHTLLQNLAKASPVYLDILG
T1 sequence (P04629 510-796 limits assumed): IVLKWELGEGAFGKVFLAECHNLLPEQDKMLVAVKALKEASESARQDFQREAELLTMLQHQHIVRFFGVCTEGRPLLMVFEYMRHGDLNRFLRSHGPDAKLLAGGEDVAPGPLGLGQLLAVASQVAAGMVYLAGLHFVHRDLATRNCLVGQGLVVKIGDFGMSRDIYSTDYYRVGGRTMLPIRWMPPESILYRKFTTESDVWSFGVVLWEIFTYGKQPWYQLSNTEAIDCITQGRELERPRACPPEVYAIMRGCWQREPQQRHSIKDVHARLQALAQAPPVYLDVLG

SMILES | pIC50 [1] | pIC50 [2] | BaF3 TRKA-NGF CTG IC 50 [3] | pIC50 [4]
CNC1CCN(c2cc(-c3cccc(-c4cnc5ccc(N6CCCC6c6cccc(F)c6)nn45)n3)ccn2)CC1 (stereo not shown) [Table 7-Compound 249] | 6.84 | 6.83 | 130 nM | 5.19
COc1ncc(-c2cnc3ccc(N4CCCC4c4cccc(F)c4)nn23)s1 (stereo not shown) [Table 3-Compound 27] | 6.85 | 7.03 | 320 nM | < 5.00
C=CC1(O)CCN(c2cccc(-c3cnc4ccc(N5CCC[C@@H]5c5cccc(F)c5)nn34)n2)CC1 [Table 7-Compound 238] | 7.77 | 7.60 | 35 nM | < 4.96
CC(C)(C)OC(=O)N1CCN(c2cccc(-c3cnc4ccc(N5CCOCC5c5cccc(F)c5)nn34)n2)CC1 (stereo not shown) [Table 2-Compound 16] | 7.00 | 6.92 | 140 nM | < 5.12
Fc1cccc(C2CCCN2c2ccc3ncc(-c4cccc(C5OCCO5)n4)n3n2)c1 (stereo not shown) [Table 7-Compound 18] | 7.33 | 8.32 | 64 nM | < 5.00
O=C(COCc1ccccc1)N1CCN(c2cccc(-c3cnc4ccc(N5CCC[C@@H]5c5cccc(F)c5)nn34)n2)CC1 [Table 7-Compound 191] | 7.85 | 7.92 | 16 nM | < 5.02
Cc1c[nH]c(C2CCN(c3cccc(-c4cnc5ccc(N6CCOCC6c6cccc(F)c6)nn45)n3)CC2)n1 (stereo not shown) [Table 7-Compound 143] | 7.47 | 7.28 | 31 nM | < 4.96
OC1CCN(Cc2cccc(-c3cnc4ccc(N5CCCC5c5cccc(F)c5)nn34)n2)C1 (stereo not shown) [Table 3-Compound 45] | 5.99 | 6.10 | 1020 nM | 5.09
OCCN1CCN(c2nccc(-c3cccc(-c4cnc5ccc(N6CCC[C@@H]6c6cccc(F)c6)nn45)n3)n2)CC1 [Table 7-Compound 82] | 8.05 | 8.00 | 5.12 nM | 6.40
O=C(CO)NC1CN(c2cccc(-c3cnc4ccc(N5CCC[C@@H]5c5cccc(F)c5)nn34)n2)C1 [Table 7-Compound 132] | 8.70 | 8.70 | 4 nM | < 4.96
Fc1cccc(C2CCCN2c2ccc3ncc(-c4cccc(-c5cnco5)n4)n3n2)c1 (stereo not shown) [Table 7-Compound 20] | 8.74 | 8.80 | 3.6 nM | < 5.00
CC1CN(Cc2cccc(-c3cnc4ccc(N5CCCC5c5cccc(F)c5)nn34)n2)CC(C)O1 (stereo not shown) [Table 3-Compound 44] | 5.95 | 5.94 | 1200 nM | < 5.00
OCCC1CCN(c2cccc(-c3cnc4ccc(N5CCOCC5c5cccc(F)c5)nn34)n2)CC1 (stereo not shown) [Table 2-Compound 23] | 8.00 | 7.62 | 12 nM | < 5.00
NC(=O)C1CCCN(c2cccc(-c3cnc4ccc(N5CCOCC5c5cccc(F)c5)nn34)n2)C1 (stereo not shown) [Table 7-Compound 6] | 7.64 | 7.41 | 62 nM | < 5.00
Fc1cccc(C2COCCN2c2ccc3ncc(-c4ccc(CN5CCOCC5)cn4)n3n2)c1 (stereo not shown) [Table 2-Compound 20] | 6.41 | 6.41 | 280 nM | < 5.00
CN1CCC(N2CCN(c3cccc(-c4cnc5ccc(N6CCOCC6c6cccc(F)c6)nn45)n3)CC2)CC1 (stereo not shown) [Table 7-Compound 8] | 8.09 | 8.06 | 6.1 nM | 5.80
Fc1cccc(C2CCCN2c2ccc3ncc(-c4csc(CN5CCNCC5)n4)n3n2)c1 (stereo not shown) [Table 3-Compound 30] | 5.96 | 5.97 | 1340 nM | < 5.00
CC(C)(C)OC(=O)N1CCC(Oc2ncc(-c3cnc4ccc(N5CCCC5c5cccc(F)c5)nn34)cn2)CC1 (stereo not shown) [Table 7-Compound 176] | 5.95 | 6.01 | 886 nM | 5.56
CCN(CC)S(=O)(=O)N1CCN(c2cccc(-c3cnc4ccc(N5CCC[C@@H]5c5cccc(F)c5)nn34)n2)CC1 [Table 7-Compound 231] | 7.64 | 7.55 | 54 nM | < 4.96
Fc1cccc([C@H]2CCCN2c2ccc3ncc(-c4cccc(N5CC[C@@H](NCC(F)(F)F)C5)n4)n3n2)c1 [Table 7-Compound 217] | 7.57 | 7.52 | 60 nM | < 4.96
[2H]C([2H])([2H])N(C1CCN(c2cccc(-c3cnc4ccc(N5CCC[C@@H]5c5cccc(F)c5)nn34)n2)CC1)C([2H])([2H])[2H] [Table 7-Compound 230] | 8.22 | 8.05 | 29 nM | 5.57
O=C(NOCC1CC1)C1CCN(c2cccc(-c3cnc4ccc(N5CCOCC5c5cccc(F)c5)nn34)n2)CC1 (stereo not shown) [Table 7-Compound 22] | 7.37 | 7.64 | 35 nM | < 5.00
